Experimental data published in patent US20250326744A1, “PIPERAZINE DERIVATIVE OR SALT THEREOF, AND PHARMACEUTICAL COMPOSITION” (priority 2022, published 2025).
Counter-ions that a name gives are not always drawn.

Columns and labels:
[1] = tested on: mexB (PA) strain; assay: Combinational effect with antibacterial agent against Pseudomonas aeruginosa (Test Examples 2 and 4): mexB (PA) strain with LVFX, TC or AZT at 1/4 MIC, EC99; type: cell-based; conditions: mexB (PA) strain, Test Example 4; for EC99, combinational effect with AZT, mexB (PA): combined with AZT at 1/4 MIC; for EC99, combinational effect with LVFX, mexB (PA): combined with LVFX at 1/4 MIC; for EC99, combinational effect with TC, mexB (PA): combined with TC at 1/4 MIC
How it was run: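 EC99 denotes the minimum test-compound concentration (range 0–800 μM) that suppresses ≥99% of growth, measured by OD595, when combined with ¼ MIC levofloxacin (LVFX), tetracycline or aztreonam. The efflux-pump mutant mexB (PA), expressing mainly MexAB-OprM, was inoculated at 10^4–5 CFU/well in CAMHB for 16–20 h.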

[2] = tested on: S-3769 strain; assay: Combinational effect with antibacterial agent against Pseudomonas aeruginosa (Test Examples 2 and 4): S-3769 strain with AMK or GM at 1/4 MIC, EC99; type: cell-based; conditions: S-3769 strain, Test Example 4; for EC99, combinational effect with AMK, S-3769 strain: combined with AMK at 1/4 MIC; for EC99, combinational effect with GM, S-3769 strain: combined with GM at 1/4 MIC
How it was run: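 EC99, the lowest test-compound concentration inhibiting growth by ≥99% (OD595), was measured with aminoglycoside AMK or GM held at ¼ MIC. Strain S-3769, a MexY-overexpressing clinical isolate, was cultured in CAMHB at 10^4 to 5 CFU/well for 16–20 h; compound range 0–800 μM.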

Structure (SMILES) | EC99, combinational effect with AZT, mexB (PA) [1] | EC99, combinational effect with LVFX, mexB (PA) [1] | EC99, combinational effect with TC, mexB (PA) [1] | EC99, combinational effect with AMK, S-3769 strain [2] | EC99, combinational effect with GM, S-3769 strain [2]
CCSc1cc(F)ccc1CN1CCN(C(=O)[C@H](N)C2CCN(CCc3cc(Cl)ccc3C3=CCCNC3)CC2)CC1 [Example 605, Hydrochloride of (R)-2-amino-2-(1-(5-chloro-2-(1,2,5,6-tetrahydropyridin-3-yl)phenethyl)piperidin-4-yl)-1-(4-(2-(cthylthio)-4-fluorobenzyl)piperazin-1-yl) ethan-1-one] | B (25 μM<EC99≤100 μM) | S (EC99≤12.5 μM) | S (EC99≤12.5 μM) | S (EC99≤12.5 μM) | S (EC99≤12.5 μM)
CCSc1cc(F)ccc1CN1CCN(C(=O)[C@H](N)C2CCN(CCc3cc(Cl)ccc3-c3cc(N)cc(F)c3)CC2)CC1 [Example 606, Hydrochloride of (R)-2-amino-2-(1-(2-(3′-amino-4-chloro-5′-fluoro-[1,1-biphenyl]-2-yl)ethyl)piperidin-4-yl)-1-(4-(2-(ethylthio)-4-fluorobenzyl)piperazin-1-yl)ethan-1-one] | S (EC99≤12.5 μM) | S (EC99≤12.5 μM) | S (EC99≤12.5 μM) | B (25 μM<EC99≤100 μM) | B (25 μM<EC99≤100 μM)
CCSc1cc(F)ccc1CN1CCN(C(=O)[C@H](N)C2CCN(CCc3cc(Cl)ccc3-c3cccc(NC)c3)CC2)CC1 [Example 607, Hydrochloride of (R)-2-amino-2-(1-(2-(4-chloro-3′-(methylamino)-[1,1-biphenyl]-2-yl)ethyl)piperidin-4-yl)-1-(4-(2-(ethylthio)-4-fluorobenzyl)piperazin-1-yl)ethan-1-one] | S (EC99≤12.5 μM) | S (EC99≤12.5 μM) | S (EC99≤12.5 μM) | B (25 μM<EC99≤100 μM) | B (25 μM<EC99≤100 μM)
CCSc1cc(F)ccc1CN1CCN(C(=O)[C@H](N)C2CCN(CCc3cscc3-c3ccccc3)CC2)CC1 [Example 608, Hydrochloride of (R)-2-amino-1-(4-(2-(ethylthio)-4-fluorobenzyl)piperazin-1-yl)-2-(1-(2-(4-phenylthiophen-3-yl)ethyl)piperidin-4-yl)ethan-1-one] | B (25 μM<EC99≤100 μM) | B (25 μM<EC99≤100 μM) | B (25 μM<EC99≤100 μM) | B (25 μM<EC99≤100 μM) | B (25 μM<EC99≤100 μM)
CCSc1cc(F)ccc1CN1CCN(C(=O)[C@H](N)C2CCN(CCc3cc(Cl)ccc3-c3cc(O)cc(F)c3)CC2)CC1 [Example 609, (R)-2-amino-2-(1-(2-(4-chloro-3′-fluoro-5′-hydroxy-[1,1′-biphenyl]-2-yl)ethyl)piperidin-4-yl)-1-(4-(2-(ethylthio)-4-fluorobenzyl)piperazin-1-yl)ethan-1-one] | S (EC99≤12.5 μM) | S (EC99≤12.5 μM) | S (EC99≤12.5 μM) | S (EC99≤12.5 μM) | S (EC99≤12.5 μM)
CSc1ccccc1CN1CCN(C(=O)[C@H](N)C2CCN(CCc3cc(Cl)ccc3-c3cc(O)cc(Cl)c3)CC2)CC1 [Example 610, (R)-2-amino-2-(1-(2-(3′-4-dichloro-5′-hydroxy-[1,1′-biphenyl]-2-yl)ethyl)piperidin-4-yl)-1-(4-(2-(methylthio)benzyl)piperazin-1-yl)ethan-1-one] | S (EC99≤12.5 μM) | S (EC99≤12.5 μM) | S (EC99≤12.5 μM) | S (EC99≤12.5 μM) | S (EC99≤12.5 μM)
CSc1ccccc1CN1CCN(C(=O)[C@H](N)C2CCN(CCc3cc(Cl)ccc3-c3cccc(O)c3)CC2)CC1 [Example 611, Hydrochloride of (R)-2-amino-2-(1-(2-(4-chloro-3′-hydroxy-[1,1-biphenyl]-2-yl)ethyl)piperidin-4-yl)-1-(4-(2-(methylthio)benzyl)piperazin-1-yl)ethan-1-one] | S (EC99≤12.5 μM) | S (EC99≤12.5 μM) | S (EC99≤12.5 μM) | S (EC99≤12.5 μM) | B (25 μM<EC99≤100 μM)
CSc1ccccc1CN1CCN(C(=O)[C@H](N)C2CCN(CCc3cc(Cl)ccc3-c3cc(O)ccc3F)CC2)CC1 [Example 612, (R)-2-amino-2-(1-(2-(4-chloro-2′-fluoro-5′-hydroxy-[1,1′-biphenyl]-2-yl)ethyl)piperidin-4-yl)-1-(4-(2-(methylthio)benzyl)piperazin-1-yl)ethan-1-one] | S (EC99≤12.5 μM) | S (EC99≤12.5 μM) | S (EC99≤12.5 μM) | S (EC99≤12.5 μM) | S (EC99≤12.5 μM)
CCSc1cc(F)ccc1CN1CCN(C(=O)[C@H](N)C2CCN(CCc3cc(Cl)ccc3-c3cc(O)cc(Cl)c3)CC2)CC1 [Example 614, (R)-2-amino-2-(1-(2-(3′,4-dichloro-5′-hydroxy-[1,1′-biphenyl]-2-yl)ethyl)piperidin-4-yl)-1-(4-(2-(ethylthio)-4-fluorobenzyl)piperazin-1-yl)ethan-1-one] | S (EC99≤12.5 μM) | S (EC99≤12.5 μM) | S (EC99≤12.5 μM) | S (EC99≤12.5 μM) | S (EC99≤12.5 μM)
CCSc1cc(F)ccc1CN1CCN(C(=O)[C@H](N)C2CCN(CCc3cc(Cl)ccc3-c3cc(O)ccc3F)CC2)CC1 [Example 615, (R)-2-amino-2-(1-(2-(4-chloro-2′-fluoro-5′-hydroxy-[1,1′-biphenyl]-2-yl)ethyl)piperidin-4-yl)-1-(4-(2-(ethylthio)-4-fluorobenzyl)piperazin-1-yl)ethan-1-one] | S (EC99≤12.5 μM) | S (EC99≤12.5 μM) | S (EC99≤12.5 μM) | S (EC99≤12.5 μM) | S (EC99≤12.5 μM)
CCSc1cc(F)ccc1CN1CCN(C(=O)[C@H](N)C2CCN(CCc3cc(Cl)ccc3-c3cccc(O)c3Cl)CC2)CC1 [Example 616, (R)-2-amino-2-(1-(2-(2′,4-dichloro-3′-hydroxy-[1,1′-biphenyl]-2-yl)ethyl)piperidin-4-yl)-1-(4-(2-(ethylthio)-4-fluorobenzyl)piperazin-1-yl)ethan-1-one] | S (EC99≤12.5 μM) | S (EC99≤12.5 μM) | S (EC99≤12.5 μM) | S (EC99≤12.5 μM) | S (EC99≤12.5 μM)
CSc1ccccc1CN1CCN(C(=O)[C@H](N)C2CCN(CCc3cc(Cl)ccc3-c3cc(O)cc(F)c3)CC2)CC1 [Example 617, (R)-2-amino-2-(1-(2-(4-chloro-3′-fluoro-5′-hydroxy-[1,1′-biphenyl]-2-yl)ethyl)piperidin-4-yl)-1-(4-(2-(methylthio)benzyl)piperazin-1-yl)ethan-1-one] | S (EC99≤12.5 μM) | S (EC99≤12.5 μM) | S (EC99≤12.5 μM) | S (EC99≤12.5 μM) | S (EC99≤12.5 μM)
CSc1ccccc1CN1CCN(C(=O)[C@H](N)C2CCN(CCc3cc(Cl)ccc3-c3cc(O)ccc3Cl)CC2)CC1 [Example 618, (R)-2-amino-2-(1-(2-(2′,4-dichloro-5′-hydroxy-[1,1′-biphenyl]-2-yl)ethyl)piperidin-4-yl)-1-(4-(2-(methylthio)benzyl)piperazin-1-yl)ethan-1-one] | S (EC99≤12.5 μM) | S (EC99≤12.5 μM) | S (EC99≤12.5 μM) | S (EC99≤12.5 μM) | S (EC99≤12.5 μM)
CCSc1cc(F)ccc1CN1CCN(C(=O)[C@H](N)C2CCN(CCc3cc(Cl)ccc3-c3cc(O)ccc3Cl)CC2)CC1 [Example 619, (R)-2-amino-2-(1-(2-(2′,4-dichloro-5′-hydroxy-[1,1′-biphenyl]-2-yl)ethyl)piperidin-4-yl)-1-(4-(2-(ethylthio)-4-fluorobenzyl)piperazin-1-yl)ethan-1-one] | S (EC99≤12.5 μM) | S (EC99≤12.5 μM) | S (EC99≤12.5 μM) | S (EC99≤12.5 μM) | S (EC99≤12.5 μM)
